Assays:
[1] = Biliary clearance test in cats; format: in vivo; parameters: scale not given here
Method: This test was conducted in male or female adult cats weighing 3-4 kg.
The test material was injected intravenously, at a dosage of 0.10 g/kg iodine at the level of the internal saphenous vein. Clearance of the material was monitored by X-ray control.
X-ray pictures visualizing the gall bladder and the bladder were taken at the following times: 30 minutes, 1 hour, 2 hours, 3 hours, 4 hours, 5 hours, 6 hours.

[2] = Osmolality determination (FISKE osmometer); format: physicochemical; details: solutions containing 28% iodine; methylglucamine salts; extrapolation from successive dilutions
Method: Osmolality is determined by extrapolation of the values obtained on successive dilutions of solutions containing 28% or 38% iodine.
Osmolality readings are made with a FISKE Model 230/D/330 D osmometer. This apparatus indicates this measurement as milliosmoles per kg of solution. Its operation is based on the principles of cryoscopy. The determinations were made with solutions containing 28% iodine.

mice = assay: Acute toxicity determination, intravenous toxicity in mice; format: in vivo, mice (Swiss origin, IOPS mice of OFI strain); details: 24 hours
Method: Intravenous toxicity determination was effected in Swiss origin, IOPS mice of OFI strain.
Each dosage level was injected to a lot of 10 mice comprising 5 male and 5 female mice.
Injections were made manually, in the caudal vein, at a rate of 2 ml/minute.
Death rate during the 24 hours after injection was recorded.

femoral artery = assay: Effect on the femoral rate of flow (peripheral vasodilatation); format: in vivo, mongrels
Method: This test was carried out in Nembutal-anesthetized male or female 7-12 mongrels.
Nembutal was used at a dosage of 30 mg/kg, with Vetranquil pre-medication, (overall intravenous injection of 2.5 mg), respiration was spontaneous.
Rate of flow variations were recorded at the level of the right or left fermoral artery, by means of a Statham electromagnetic sensor.
The injections were made in a collateral of the fermoral artery, downstream of the sensor, by means of a catheter mounted by the retrograde route, so as not to perturb the blood flow.
The injections were made under a constant volume of 1.5 ml administered within 3-5 seconds.
The same volume of an iostonic sodium chloride solution was also injected.

[3] = i.v., 0.10 g I/kg, 28% I, Mgl salt
[4] = 1.5 ml into collateral of femoral artery, 28% I, Mgl salt

Row | Structure (SMILES) | Biliary clearance in cat, i.v. [1, 3] | Osmolality [2] [mosm/kg] | Acute toxicity in mice, i.v. (mice; 28% I, Mgl salt) [grams I/kg] | Peripheral vasodilatation, femoral rate of flow (femoral artery; [4]) | further results
1 | CNC(=O)c1c(I)c(NC(=O)CCCNC(=O)c2c(I)c(C(=O)NCCO)c(I)c(N(C)C(C)=O)c2I)c(I)c(C(=O)O)c1I [Compound 7, 2,4,6-triiodo-3-N-methylcarbamyl-5-(2,4,6-triiodo-3-N-hydroxyethylcarbamyl-5-N-methylacetamido-benzoyl)γ-aminobutyrylamino-benzoic acid] | 0 | 525 | 5 | ++ | –
2 | CNC(=O)c1c(I)c(C(=O)NCCCCCC(=O)Nc2c(I)cc(I)c(C(=O)O)c2I)c(I)c(N(C)C(C)=O)c1I [Compound 10, 2,4,6-triiodo-5-(2,4,6-triiodo-3-N-methylcarbamyl-5-N-methylacetamido-benzoyl)-ε-aminocaproylamino-benzoic acid] | ++++ | 420 | 1.5 | ++++ | –
3 | CNC(=O)c1c(I)c(NC(=O)CCCNC(=O)c2c(I)cc(I)c(N(C)C(C)=O)c2I)c(I)c(C(=O)O)c1I [Compound 11, 2,4,6-triiodo-3-N-methylcarbamyl-5-(2,4,6-triiodo-3-N-methylacetamido-benzoyl)-γ-aminobutyrylaminobenzoic acid] | +++ | 390 | 2.3 | ++++ | –
4 | CNC(=O)c1c(I)c(NC(=O)CNC(=O)c2c(I)c(NC(=O)CNC(=O)c3c(I)c(NC(C)=O)c(I)c(C(=O)NC)c3I)c(I)c(N(C)C(C)=O)c2I)c(I)c(C(=O)O)c1I [Compound 16, 2,4,6-triiodo-3-N-methylcarbamyl-5-[2,4,6-triiodo-3-N-methylacetamido-5-(2,4,6-triiodo-3-N-methylcarbamyl-5-acetamido-benzoyl)glycylamino-benzoyl]-glycylamino-benzoic acid] | – | 250 | – | – | Biliary clearance in cat, i.v. ([1]; in vivo, iv): 0; Peripheral vasodilatation, femoral rate of flow (femoral artery; in vivo): +
5 | CNC(=O)c1c(I)c(NC(=O)CNC(=O)c2c(I)c(NC(=O)CNC(=O)c3c(I)c(C(=O)NC)c(I)c(N(C)C(C)=O)c3I)c(I)c(N(C)C(C)=O)c2I)c(I)c(C(=O)O)c1I [Compound 17, 2,4,6-triiodo-3-N-methylcarbamyl-5-[2,4,6-triiodo-3-N-methylacetamido-5-(2,4,6-triiodo-3-N-methylcarbamyl-5-N-methylacetamido-benzoyl)glycyl-aminobenzoyl]-glycyl-amino-benzoic acid] | – | 200 | – | – | Biliary clearance in cat, i.v. ([1]; in vivo, iv): 0; Peripheral vasodilatation, femoral rate of flow (femoral artery; in vivo): ++
6 | CNC(=O)c1c(I)c(NC(=O)CNC(=O)c2c(I)cc(I)c(N(C)C(C)=O)c2I)c(I)c(C(=O)O)c1I [Compound 18, 2,4,6-triiodo-3-N-methylcarbamyl-5-(2,4,6-triiodo-3-N-methylacetamido-benzoyl-glycyl)-amino-benzoic acid] | ++++ | 390 | – | ++++ | –
7 | CNC(=O)c1c(I)c(C(=O)NCC(=O)Nc2c(I)cc(I)c(C(=O)O)c2I)c(I)c(N(C)C(C)=O)c1I [Compound 19, 2,4,6-triiodo-5-(2,4,6-triiodo-3-N-methylcarbamyl-5-N-methylacetamido-benzoyl) glycylamino-benzoic acid] | ++++ | 500 | 4 | ++++ | –
8 | CC(=O)Nc1c(I)c(NC(=O)CNC(=O)c2c(I)c(NC(C)=O)c(I)c(N(C)C(C)=O)c2I)c(I)c(C(=O)O)c1I [Compound 20, 2,4,6-triiodo-3-acetamido-5-(2,4,6-triiodo-3-N-methylacetamido-5-acetamido-benzoyl)-glycylaino-benzoic acid] | – | 755 | – | – | Acute toxicity in mice, i.v. (mice; 28 and 38% I, Na salt): 7.5 grams I/kg; Peripheral vasodilatation, femoral rate of flow (femoral artery; 1.5 ml into collateral of femoral artery, 28 and 38% I, Na salt): +
9 | CNC(=O)c1c(I)c(NC(C)=O)c(I)c(C(=O)NCC(=O)N(C)c2c(I)cc(I)c(C(=O)O)c2I)c1I [Compound 21, 2,4,6-triiodo-3-(2,4,6-triiodo-3-N-methylcarbamyl-5-acetamido-benzoyl)glycyl-N-methylamino-benzoic acid] | – | 580 | – | – | Biliary clearance in cat, i.v. ([1]; i.v., 0.10 g I/kg, 20% I, Mgl salt): +++; Acute toxicity in mice, i.v. (mice; 20% I, Mgl salt): 4-5 grams I/kg; Peripheral vasodilatation, femoral rate of flow (femoral artery; 1.5 ml into collateral of femoral artery, 20% I, Mgl salt): ++++
10 | CNC(=O)c1c(I)c(C(=O)NC(C)C(=O)Nc2c(I)cc(I)c(C(=O)O)c2I)c(I)c(N(C)C(C)=O)c1I (stereo not drawn) [Compound 23, 2,4,6-triiodo-3-(2,4,6-triiodo-3-N-methyl-carbamyl-5-N-methylacetamido-benzoyl)-α-aminoproionylamino-benzoic acid] | ++++ | 535 | 3.5 | +++ | –
11 | CNC(=O)c1c(I)c(C(=O)NCC(=O)Nc2c(I)c(NC(C)=O)c(I)c(C(=O)O)c2I)c(I)c(N(C)C(C)=O)c1I [Compound 25, 2,4,6-triiodo-3-acetamido-5-(2,4,6-triiodo-3-N-methylcarbamyl-5-N-methylacetamido-benzoyl)glycylamino-benzoic acid] | – | 925 | – | – | Biliary clearance in cat, i.v. ([1]; i.v., 0.10 g I/kg, 34% I, Na salt): 0; Acute toxicity in mice, i.v. (mice; 34% I, Na salt): 9 grams I/kg; Peripheral vasodilatation, femoral rate of flow (femoral artery; 1.5 ml into collateral of femoral artery, 34% I, Na salt): ++
12 | CNC(=O)c1c(I)c(NC(C)=O)c(I)c(C(=O)NCC(=O)Nc2c(I)c(C(=O)O)c(I)c(N(C)C(C)=O)c2I)c1I [Compound 26, 12,4,6-triiodo-3-N-methylacetamido-5-(2,4,6-triiodo-3-N-methylcarbamyl-5-acetamido-benzoyl)-glycylamino-benzoic acid] | – | 500 | – | – | Biliary clearance in cat, i.v. ([1]; i.v., 0.10 g I/kg, 38% I, Na salt): 0; Acute toxicity in mice, i.v. (mice; 38% I, Na salt): 13 grams I/kg; Peripheral vasodilatation, femoral rate of flow (femoral artery; 1.5 ml into collateral of femoral artery, 38% I, Na salt): ++
13 | CNC(=O)c1c(I)c(NC(=O)CNC(=O)c2c(I)c(NC(=O)C(O)C(O)C(O)C(O)CO)c(I)c(C(=O)NC)c2I)c(I)c(C(=O)O)c1I (stereo not shown) [Compound 35, 2,4,6-triiodo-3-N-methylcarbamyl-5-(2,4,6-triiodo-3-N-methylcarbamyl-5-gluconylamino-benzoyl)glycylamino-benzoic acid] | 0 | – | 8 | + | –
14 | CNC(=O)c1c(I)c(NC(=O)C(O)C(O)C(O)C(O)CO)c(I)c(C(=O)NCC(=O)Nc2c(I)c(C(=O)O)c(I)c(C(=O)NCCO)c2I)c1I (stereo not shown) [Compound 36, 2,4,6-triiodo-3-hydroxyethylcarbamyl-5-(2,4,6-triiodo-3-N-methylcarbamyl-5-glyconylamino-benzoyl) glycylamino-benzoic acid] | 0 | – | 8 | ++ | –
15 | CNC(=O)c1c(I)c(C(=O)NCCCC(=O)N(C)c2c(I)c(C(=O)O)c(I)c(C(=O)NC)c2I)c(I)c(N(C)C(C)=O)c1I [Compound 37, 2,4,6-triiodo-3-N-methylcarbamyl-5-(2,4,6-triiodo-3-N-methylcarbamyl-5-N-methylacetamido-benzoyl)-γ-aminobutyryl-N-methylamino-benzoic acid] | ++ | 730 | < 6 | ++++ | –
16 | CNC(=O)c1c(I)c(NC(C)=O)c(I)c(C(=O)NCC(=O)N(C)c2c(I)c(C(=O)O)c(I)c(C(=O)NCCO)c2I)c1I [Compound 38, 2,4,6-triiodo-3-N-hydroxyethylcarbamyl-5-(2,4,6-triiodo-3-N-methylcarbamyl-5-acetamido-benzoyl)-glycyl-N-methylamino-benzoic acid] | – | 635 | – | – | –
17 | CC(=O)Nc1c(I)c(NC(C)=O)c(I)c(C(=O)O)c1I [d, 2,4,6-Triiodo-3,5-bis-(acetamido)-benzoic acid, reference compound] | – | – | – | – | Biliary clearance in cat, i.v. ([1]; i.v., 0.10 g I/kg, 38% I, mixed Mgl and Na salt): 0; Acute toxicity in mice, i.v. (mice; 38% I, mixed Mgl and Na salt): 5.7 grams I/kg; Peripheral vasodilatation, femoral rate of flow (femoral artery; in vivo): +++
18 | O=C(CCCCC(=O)Nc1c(I)cc(I)c(C(=O)O)c1I)Nc1c(I)cc(I)c(C(=O)O)c1I [e, 3,3'-Adipoyldiimino-bis(2,4,6-triiodobenzoic) acid, reference compound] | – | – | 2 | ++++ | Biliary clearance in cat, i.v. ([1]; in vivo, iv): ++++

Source: patent US4094966A, “Iodobenzene derivatives and X-ray contrast media containing the same” (priority 1974, dated 1978)
